Reference: US10898609B2, “Tissue decellularization methods” (priority 2015, dated 2021)

Assays:
Type in all cases: cell-based, Sprague Dawley rats
[1] = system: active caspase 3; assay: Immunochemistry for active caspase 3 on nerve tissue sections; settings: 10 μM camptothecin, 2 days, 37° C., ex vivo nerve; vs media control
Procedure: (§1) Peripheral nerves were harvested from Sprague Dawley rats and decellularized according to an apoptosis-assisted protocol using 10 μM camptothecin in non-supplemented media at 37° C. for 2 days. Tissue in media without camptothecin was used as a control. Apoptotic agent treatment was succeeded by washes in saline buffered solutions to optimize cell removal. The degree of apoptosis, cellular removal, and matrix preservation was assessed using immunochemistry on nerve tissue sections and fluorescence imaging. Antibodies used to identify apoptosis, cell removal, and tissue preservation include those against active caspase 3 (Abcam); neurofilament (RT-97, DSHB) and S100 (Dako); and laminin (Sigma), respectively. […] Total DNA content was quantified using a Picogreen DNA assay (Life Technologies) according to manufacturer's instructions.

[2] = system: peripheral nerve; assay: TUNEL assay of apoptosis-mediated DNA fragmentation in nerve tissue; settings: 10 μM camptothecin, 2 days, 37° C., ex vivo nerve; vs media control
Procedure: as §1

[3] = system: peripheral nerve; assay: Total DNA content of decellularized peripheral nerve, Picogreen DNA assay; settings: 1 day
Procedure: Peripheral nerves were harvested from Sprague Dawley rats and decellularized according to an apoptosis-assisted protocol using 5 μM camptothecin in non-supplemented media at 37° C. for 1 day. Tissue in media without camptothecin, an apoptotic agent, was used as a control. Apoptotic agent treatment was succeeded by washes in saline buffered solutions to optimize cell removal. Furthermore, the tissue was treated with 75 u/mL DNAse for 24 hours to ensure DNA removal. The degree of apoptosis, cellular removal, and matrix preservation was assessed using immunochemistry on nerve tissue sections and fluorescence imaging (FIG. 2). Antibodies used to identify apoptosis, cell removal, and tissue preservation include those against active caspase 3 (Abcam); neurofilament (RT-97, DSHB) and S100 (Dako); and laminin (Sigma), respectively. […] FIGS. 2B and 2C show nerves treated with 5 μM for 1 day, washed with a hypertonic, and either washed with a hypertonic solution or treated for 24 hours with DNAse, respectively. […] FIGS. 2E and 2F show treatment with higher camptothecin (10 μM), again for 1 day, and washed similarly to tissue in FIGS. 2B and 2C. These images depict 1) apoptosis induction is necessary prior to washing to effectively remove cellular components and 2) combing apoptosis induction with washes in non-isotonic solutions achieves cellular removal of peripheral nerve tissue. Total DNA content was quantified using a Picogreen DNA assay (Life Technologies) according to manufacturer's instructions.

Compound: CC[C@@]1(O)C(=O)OCc2c1cc1n(c2=O)Cc2cc3ccccc3nc2-1 [camptothecin]
- active caspase 3 (early mediator of apoptosis) [1]: caspase 3 activation
- DNA fragmentation (TUNEL staining) [2]: DNA fragmentation
- reduction in DNA content compared to fresh nerve ([3]; 5 μM camptothecin, 37° C., hypertonic and hypotonic washes): 71.9%
- reduction in DNA content compared to fresh nerve ([3]; 5 μM camptothecin, hypotonic wash replaced with DNAse treatment (75 u/mL, 24 hours)): 95.1%
- reduction in DNA content compared to fresh nerve ([3]; 10 μM camptothecin, hypertonic and hypotonic washes): 57.3%
- reduction in DNA content compared to fresh nerve ([3]; 10 μM camptothecin, hypotonic wash replaced with DNAse treatment (75 u/mL, 24 hours)): 95.8%
